Measurements reported in patent US20230039711A1, “AHR INHIBITORS AND USES THEREOF” (Ikena Oncology, Inc., priority 2020, published 2023).

How the values were obtained:
human T cell = assay: Human T cell assays; type: cell-based
[1] = Nonclinical safety studies incl. 28-day GLP study in rat; type: in vivo; conditions: rats
[2] = Nonclinical safety studies incl. 28-day GLP study in monkeys; type: in vivo, monkey
[3] = Nonclinical safety, single-dose and repeated-dose toxicological studies in rodent and non-rodent species; type: in vivo; conditions: species not specified for these findings
AHR = molecular target: T1, AHR (Homo sapiens, UniProt P35869); assay: AHR translocation from cytoplasm to nucleus in the presence of a ligand, and downstream signaling in in vivo tumor models
T1 construct: host or cells: in vivo tumor models (not specified)
T1 sequence (P35869 11-848): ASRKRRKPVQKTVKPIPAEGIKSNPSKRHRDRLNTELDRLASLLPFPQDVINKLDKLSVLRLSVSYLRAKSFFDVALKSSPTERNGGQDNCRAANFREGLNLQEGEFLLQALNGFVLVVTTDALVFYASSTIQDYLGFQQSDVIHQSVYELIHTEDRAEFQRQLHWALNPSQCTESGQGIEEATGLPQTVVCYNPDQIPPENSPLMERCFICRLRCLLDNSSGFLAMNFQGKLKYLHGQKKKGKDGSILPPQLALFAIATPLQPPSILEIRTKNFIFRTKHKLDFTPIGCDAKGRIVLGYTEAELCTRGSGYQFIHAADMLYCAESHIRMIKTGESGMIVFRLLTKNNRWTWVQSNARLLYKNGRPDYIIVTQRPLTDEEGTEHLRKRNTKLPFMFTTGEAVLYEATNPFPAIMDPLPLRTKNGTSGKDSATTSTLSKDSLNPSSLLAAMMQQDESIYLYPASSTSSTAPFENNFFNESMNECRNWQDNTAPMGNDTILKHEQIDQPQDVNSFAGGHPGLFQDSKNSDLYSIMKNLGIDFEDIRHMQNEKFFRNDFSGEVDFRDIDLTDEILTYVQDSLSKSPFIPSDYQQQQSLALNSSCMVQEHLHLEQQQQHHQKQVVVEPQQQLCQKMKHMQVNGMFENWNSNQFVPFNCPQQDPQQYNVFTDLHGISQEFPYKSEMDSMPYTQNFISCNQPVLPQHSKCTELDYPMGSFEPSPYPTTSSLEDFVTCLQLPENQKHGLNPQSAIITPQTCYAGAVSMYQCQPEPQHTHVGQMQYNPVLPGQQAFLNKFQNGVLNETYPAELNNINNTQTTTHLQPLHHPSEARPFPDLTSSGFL

[4] = Monotherapy dosing in human patients, safety; type: in vivo; conditions: 200 mg, 400 mg, 800 mg, and 1200 mg once daily (QD)
[5] = tested on: other receptors, transporters, and kinases; assay: Selectivity for AHR over other receptors, transporters, and kinases

CC(C)c1cnn2c(N[C@@H]3CCc4[nH]c5ccccc5c4C3)nc(-c3cncc(F)c3)nc12 [Compound A, (R)-N-(2-(5-fluoropyridin-3-yl)-8-isopropylpyrazolo[1,5-a][1,3,5]triazin-4-yl)-2,3,4,9-tetrahydro-1H-carbazol-3-amine]
CYP1A1 gene expression (human T cell): inhibits | T cell state (human T cell): induces an activated T cell state | interleukin (IL)-22 gene expression (human T cell): inhibits | pro-inflammatory cytokine IL-2 (human T cell): increase | pro-inflammatory cytokine IL-9 (human T cell): increase | stomach findings [1]: nonglandular stomach ulceration and edema | testicular findings ([1]; not resolved after 2 weeks of dosing cessation): seminiferous tubule degeneration and debris in the epididymis lumen | thymus weights and cortical lymphocytes ([2]; monkey): decreased | QTc prolongation ([2]; monkeys): up to 11% | noteworthy findings of potential relevance to humans (general) [3]: emesis, loose stool, dehydration, body weight loss | AHR translocating from the cytoplasm to the nucleus and downstream signaling (AHR): effectively blocks | serious adverse events (SAEs) [4]: no serious adverse events | selectivity for AHR over other receptors, transporters, and kinases [5]: highly selective for AHR
